Experimental data reported in ChEMBL document CHEMBL4339231, “α,γ-Diketocarboxylic Acids and Their Esters Act as Carbonic Anhydrase IX and XII Selective Inhibitors” (ACS Med Chem Lett, 2019).
Active and inactive are the calls of the source. The calls are words filed in the database; no cut-off is given here.

Assays:
Carbonic anhydrase 1 = Carbonic anhydrase 1 (Homo sapiens, UniProt P00915); test: Inhibition of human carbonic anhydrase 1 incubated for 15 mins by stopped flow CO2 hydrase assay
Carbonic anhydrase 2 = Carbonic anhydrase 2 (Homo sapiens, UniProt P00918); test: Inhibition of human carbonic anhydrase 2 incubated for 15 mins by stopped flow CO2 hydrase assay
Carbonic anhydrase 9 = Carbonic anhydrase 9 (Homo sapiens, UniProt Q16790); test: Inhibition of human carbonic anhydrase 9 incubated for 15 mins by stopped flow CO2 hydrase assay
MG-63 [1] = test: Cytotoxicity in human MG63 cells assessed as reduction in cell viability at 12.5 to 100 uM incubated for 72 hrs by acid phosphatase assay; type: functional, cell-based
HOS [2] = test: Cytotoxicity in human HOS cells assessed as reduction in cell viability at 12.5 to 100 uM incubated for 72 hrs by acid phosphatase assay; type: functional, cell-based
MG-63 [3] = test: Cytotoxicity in human MG63 cells assessed as reduction in cell viability at 50 uM incubated for 72 hrs by acid phosphatase assay; type: functional
HOS [4] = test: Cytotoxicity in human HOS cells assessed as reduction in cell viability at 50 uM incubated for 72 hrs by acid phosphatase assay; type: functional
MG-63 [5] = test: Antiproliferative activity against human MG63 cells assessed as reduction in cell viability incubated for 72 hrs by erythrosine B dye vital staining assay; type: functional, cell-based; details: MG-63, 72 h
HOS [6] = test: Antiproliferative activity against human HOS cells assessed as reduction in cell viability incubated for 72 hrs by erythrosine B dye vital staining assay; type: functional, cell-based
MG-63 [7] = test: Induction of apoptosis in human MG63 cells assessed as increase in caspase-3 activation at 50 uM incubated for 72 hrs by Caspase-GloR 3/7 assay; type: functional, cell-based
MG-63 [8] = test: Induction of apoptosis in human MG63 cells assessed as increase in caspase-7 activation at 50 uM incubated for 72 hrs by Caspase-GloR 3/7 assay; type: functional, cell-based
HOS [9] = test: Induction of apoptosis in human HOS cells assessed as increase in caspase-3 activation at 50 uM incubated for 72 hrs by Caspase-GloR 3/7 assay; type: functional, cell-based
HOS [10] = test: Induction of apoptosis in human HOS cells assessed as increase in caspase-7 activation at 50 uM incubated for 72 hrs by Caspase-GloR 3/7 assay; type: functional, cell-based
MG-63 [11] = test: Cytotoxicity in human MG63 cells assessed as reduction in cell viability at 25 uM incubated for 72 hrs by acid phosphatase assay; type: functional
HOS [12] = test: Cytotoxicity in human HOS cells assessed as reduction in cell viability at 25 uM incubated for 72 hrs by acid phosphatase assay; type: functional
MG-63 [13] = test: Induction of apoptosis in human MG63 cells assessed as increase in caspase-3 activation at 25 uM incubated for 72 hrs by Caspase-GloR 3/7 assay; type: functional, cell-based
HOS [14] = test: Induction of apoptosis in human HOS cells assessed as increase in caspase-3 activation at 25 uM incubated for 72 hrs by Caspase-GloR 3/7 assay; type: functional, cell-based
MG-63 [15] = test: Induction of apoptosis in human MG63 cells assessed as increase in caspase-7 activation at 25 uM incubated for 72 hrs by Caspase-GloR 3/7 assay; type: functional, cell-based
HOS [16] = test: Induction of apoptosis in human HOS cells assessed as increase in caspase-7 activation at 25 uM incubated for 72 hrs by Caspase-GloR 3/7 assay; type: functional, cell-based

Carbonic anhydrase 1, sequence (P00915 whole entry): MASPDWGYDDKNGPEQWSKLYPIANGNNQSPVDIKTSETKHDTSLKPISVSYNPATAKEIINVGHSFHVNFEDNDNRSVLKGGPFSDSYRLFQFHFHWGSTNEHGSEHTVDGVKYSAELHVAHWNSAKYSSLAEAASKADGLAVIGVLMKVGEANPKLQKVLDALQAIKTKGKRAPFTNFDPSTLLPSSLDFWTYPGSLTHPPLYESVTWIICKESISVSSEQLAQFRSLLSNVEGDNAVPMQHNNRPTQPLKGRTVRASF

Structure (SMILES) | Ki (Carbonic anhydrase 1) | Ki (Carbonic anhydrase 2) | Ki (Carbonic anhydrase 9) | Activity (MG-63 [1]) | Activity (HOS [2]) | Activity (MG-63 [3]) | Activity (HOS [4]) | IC50 (MG-63 [5]) | IC50 (HOS [6]) | Activity (MG-63 [7]) | Activity (MG-63 [8]) | Activity (HOS [9]) | Activity (HOS [10]) | Activity (MG-63 [11]) | Activity (HOS [12]) | Activity (MG-63 [13]) | Activity (HOS [14]) | Activity (MG-63 [15]) | Activity (HOS [16])
O=C(/C=C(\O)C(=O)O)/C=C/c1ccc(NC(=O)c2cccc3ccccc23)cc1 | > 10 µM | 2.58 µM | 0.0128 µM |  |  |  |  |  |  |  |  |  |  |  |  |  |  |  | 
O=C(/C=C(\O)C(=O)O)/C=C/c1ccc(NC(=O)c2ccccc2)cc1 | > 10 µM | 5.03 µM | 0.0125 µM |  |  |  |  |  |  |  |  |  |  |  |  |  |  |  | 
CCOC(=O)/C(O)=C/C(=O)/C=C/c1ccc(NC(=O)c2cccc3ccccc23)cc1 | > 10 µM | 8.65 µM | 0.0379 µM | Dose-dependent effect | Dose-dependent effect |  |  | 14.7 µM | 15.6 µM |  |  |  |  | 16.4% | 19.7% | inactive | inactive | inactive | inactive
O=C(/C=C(\O)C(=O)O)/C=C/c1ccc(NC(=O)c2ccc3ccccc3c2)cc1 | 8.98 µM | 2.08 µM | 0.0113 µM | inactive | inactive |  |  |  |  |  |  |  |  |  |  |  |  |  | 

These reach a lower Ki (Carbonic anhydrase 1). Values come first.

Ki (Carbonic anhydrase 1) | Ki (Carbonic anhydrase 2) | Ki (Carbonic anhydrase 9) | Structure (SMILES) | Activity (MG-63 [1]) | Activity (HOS [2]) | Activity (MG-63 [3]) | Activity (HOS [4]) | IC50 (MG-63 [5]) | IC50 (HOS [6]) | Activity (MG-63 [7]) | Activity (MG-63 [8]) | Activity (HOS [9]) | Activity (HOS [10]) | Activity (MG-63 [11]) | Activity (HOS [12]) | Activity (MG-63 [13]) | Activity (HOS [14]) | Activity (MG-63 [15]) | Activity (HOS [16])
6.18 µM | 9.44 µM | 0.0126 µM | CCOC(=O)/C(O)=C/C(=O)/C=C/c1ccc(NC(=O)c2ccc3ccccc3c2)cc1 | Dose-dependent effect | Dose-dependent effect | 50% | 50% | 45.8 µM | 19.2 µM | inactive | inactive | inactive | inactive |  |  |  |  |  | 
7.33 µM | > 10 µM | 0.0902 µM | CCOC(=O)/C(O)=C/C(=O)/C=C/c1ccc(NC(=O)c2ccccc2)cc1 |  |  |  |  |  |  |  |  |  |  |  |  |  |  |  | 
